Experiments:
[1] = tested on: FAS; assay: Expression of FAS protein in HepG2 cells, western blotting; assay type: cell-based, human; conditions: for expression of FAS, which had been increased by T17: 0, 1, 10, 50, 100 μM with 1 μM T17, 24 hours, FIGS. 6b and 6c; for expression of FAS protein: 100 μM, 24 hours, FIG. 6a
Experimental: HepG2 cells (1×10^6 cells/well) were seeded on a 60-dish and cultured overnight in a DMEM containing 10% FBS. The HepG2 cells were maintained at 37° C. in a humidification thermostat containing 5% CO2 and 95% air. After culturing, the HepG2 cells were treated with each of the JC1-38, JC1-40, and JC1-42 compounds at a concentration of 100 μM, and, as a positive control, the HepG2 cells were treated with 2 mM metformin, which is an AMPK activator, for 24 hours. After treatment, the expression of proteins was analyzed by western blotting analysis. That is, after treatment, the HepG2 cells were destroyed on ice in a lysis buffer containing 50 mM NaCl, 50 mM Tris pH 7.4, 5 mM EDTA, 1% NP-40, and a protease inhibitor for 30 minutes, and then centrifuged to obtain a total cell lysate. 20 μg to 30 μg of proteins collected from the total cell lysate was subjected to 7% to 9% sodium dodecyl sulfate-polyacrylamide gel electrophoresis (SDS-PAGE), and was transferred to a polyvinylidene difluoride membrane (Millipore, Bedford, Mass., USA). The resulting product was subjected to blocking with 5% or 10% (w/v) nonfat dry milk in PBS containing 0.1% Tween-20, and was reacted with antibodies specific to RORα (Affinity BioReagents), LXRα, SREBP-1, FAS (Santa Cruz Biotechnology), phospho-ACC (Cell signaling), and α-tubulin (Calbiochem). Immunoreactive proteins were detected with Amersham ECL western blotting detection reagents using a horseradish peroxidase (HRP)-conjugated secondary antibody (Zymed Lab). Protein concentrations were quantified by bicinchoninic acid (BCA) (Pierce) analysis, and the expression of α-tubulin was monitored as a control. The results thereof are illustrated in FIG. 6a.
In addition, HepG2 cells were cultured under the same conditions, and then the HepG2 cells were treated with particular concentrations (0 μM, 1 μM, 10 μM, 50 μM, and 100 μM) of JC1-40 (or JC1-42) and 1 μM T17 for 24 hours. After treatment, the expression of proteins was analyzed by western blotting analysis, and the expression of α-tubulin was monitored as a control. The results thereof are illustrated in FIGS. 6b and 6c.

[2] = tested on: ACC; assay: Phosphorylation of ACC in HepG2 cells, western blotting; assay type: cell-based, human; conditions: 100 μM, 24 hours; FIGS. 7a and 7b
Experimental: HepG2 cells (1×10^6 cells/well) were seeded on a 60-dish, and cultured overnight in a DMEM containing 10% FBS. The HepG2 cells were maintained at 37° C. in a humidification thermostat containing 5% CO2 and 95% air. After culturing, the HepG2 cells were treated with 100 μM JC1-38 and JC1-40 (or 100 μM JC1-38 and JC1-42), 2 mM metfornin, and 2 mM AICIR for 24 hours. After treatment, the expression of RORα and phosphorylated ACC (pACC) proteins was analyzed by western blotting, and the expression of α-tubulin was monitored as a control. The results thereof are illustrated in FIGS. 7a and 7b.

[3] = tested on: AMPK; assay: Phosphorylation of AMPK in liver of mice with high-fat diet-induced fatty liver, western blotting; assay type: in vivo; conditions: oral, 10 mg/kg/day or 30 mg/kg/day for 2 days; liver tissue; FIG. 11b
Experimental: 3 days after the diet was fed, the mice were fed the high-fat diet containing safflower oil while being orally administered JC1-40 and JC1-42, which had been diluted with 0.5% carboxymethyl cellulose, at a dose of 10 mg/kg/day or 30 mg/kg/day for 2 days. 5 days after the diet was fed, the mice were sacrificed to extract liver tissues therefrom, and the expression of proteins was analyzed by western blotting analysis. That is, after treatment, each liver tissue was homogenized in a lysis buffer containing 50 mM NaCl, 50 mM Tris pH 7.4, 5 mM EDTA, 1% NP-40, and a protease inhibitor, and then centrifuged to obtain a total cell lysate. 20 μg to 30 μg of proteins collected from the total cell lysate was subjected to 7% to 9% SDS-PAGE, and was transferred to a polyvinylidene difluoride membrane (Millipore, Bedford, Mass., USA). […] Immunoreactive proteins were detected with Amersham ECL western blotting detection reagents using an HRP-conjugated secondary antibody (Zymed Lab). Protein concentrations were quantified by BCA (Pierce) analysis, and the expression of α-tubulin was monitored as a control. […]

[4] = tested on: mice with high-fat diet-induced fatty liver; assay: Intrahepatic triglyceride, intrahepatic fat accumulation and body weight in mice with high-fat diet-induced fatty liver; assay type: in vivo; conditions: oral, 10 mg/kg/day or 30 mg/kg/day for 2 days; for amount of intrahepatic triglyceride, which had been increased by the high-fat diet: FIG. 12a; for intrahepatic fat accumulation (Oil Red O staining): FIG. 12b; for body weights of the mice, which had been increased by the high-fat diet: FIG. 12c
Experimental: 3 days after the diet was fed, the mice were fed the high-fat diet containing safflower oil while being orally administered JC1-40 and JC142, which had been diluted with 0.5% carboxymethyl cellulose, at a dose of 10 mg/kg/day or 30 mg/kg/day for 2 days. 5 days after the diet was fed, the mice were sacrificed to extract liver tissues therefrom, and the amounts of intrahepatic triglycerides were measured using an EnzyChrom™ triglyceride assay kit (BioAssay Systems).
In addition, Oil Red O staining, which enables the identification of intrahepatic fat accumulation, was performed on the extracted liver tissues of the mice.

[5] = tested on: MCP-1; assay: MCP-1 in alcoholic fatty liver mice model (ELISA, western blotting); assay type: in vivo, mice (C57BL/6); conditions: oral, 10 mg/kg body weight once a day for 2 weeks, alcohol group
Experimental: Eight-week-old black male laboratory mice (C57BL/6) were divided into: 1) control (n=8); 2) JC1-40-administered control (n=8); 3) alcohol group (n=12); and 4) JC1-40-administered alcohol group (n=12), and fed a Lieber-DeCarli liquid diet (Dyets Inc, Bethlehem, Pa., USA). The Lieber-DeCarli liquid diet in the form of powder was purchased, and then water was added thereto every morning to form a liquid-type feed such that 1 ml of the feed contained 1 kcal. The alcohol group was fed a gradually increasing amount of alcohol with an increment of 0.5% during a 2-week adaptation period, and then was fed a feed containing 5% alcohol for 5 weeks. The feed of the control included maltose dextrin instead of alcohol, and for pair-feeding, the feed included maltose dextrin in an amount providing the same calories as the calories that the amount of the feed fed to the mice of the alcohol group contained. During the 5-week ingestion of 5% alcohol, JC1-40 diluted with 0.5% carboxymethyl cellulose was orally administered once a day at a dose of 10 mg/kg body weight for 2 weeks prior to sacrificing the mice. After the 5-week alcohol feeding period was completed, the mice were fasted for 12 hours, and anesthetized to incise the abdomen, and blood and liver were removed from each mouse.

SMILES	expression of FAS, which had been increased by T17 [1]	expression of FAS protein [1]	phosphorylation of ACC [2]	phosphorylation of AMPK [3]	amount of intrahepatic triglyceride, which had been increased by the high-fat diet [4]	intrahepatic fat accumulation (Oil Red O staining) [4]	body weights of the mice, which had been increased by the high-fat diet [4]	level of cytokine MCP-1 (ELISA) ([5]; FIG. 16c)	expression of the MCP-1 protein (western blotting) ([5]; FIG. 16e)
CNC(=S)NCc1ccc(OCc2ccccc2)cc1 [Compound 40, 1-(4-benzyloxy-benzyl)-3-methyl-thiourea]	decreased in a manner dependent on the concentration	decreased	increased	increased	decreased	decreased	decreased	significantly decreased	decreased to the level of the control
CNC(=S)NCc1ccc(Oc2ccccc2)cc1 [Compound 42, 1-(4-phenoxy-benzyl)-3-methyl-thiourea]	decreased in a manner dependent on the concentration	decreased	increased	increased	decreased	decreased	decreased		

From patent US10407388B2, “Thiourea derivatives as activators of RORα and pharmaceutical composition containing same” (SEOUL NATIONAL UNIVERSITY R & DB FOUNDATION, priority 2011, dated 2019)
